Earlier results in patent US20060258652A1, “Beta-blockers having antioxidant and no-donor activity” (priority 2002, published 2006).

Columns and labels:
[1] = double-blind study, hypertensive patients
[2] = prophylactic use

SMILES | efficacy in anxiety compared with propranolol [1] | patients in whom the incidence of migraine attacks is reduced [2]
CC(C)NCC(O)COc1ccc(CC(N)=O)cc1 (centres unmarked) [atenolol] | considerably better than propranolol | 
CC(C)NCC(O)COc1cccc2ccccc12 (centres unmarked) [Propranolol] |  | 60%
